Measurements published in patent US9556179B2 (BRISTOL-MYERS SQUIBB COMPANY, priority 2012, dated 2017).

Assays:
CK1ε = CK1ε (Homo sapiens (Human), UniProt P49674); assay: CK1ε kinase assay (Caliper LABCHIP electrophoretic separation of fluoresceinated peptide substrate and product); type: biochemical; conditions: 200 pM enzyme, 50 μM ATP, 22 hours at room temperature
How it was run: (§1)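 Reactions ran 22 hours at room temperature and were stopped with EDTA. Phosphorylated product and unphosphorylated substrate were then separated electrophoretically. Compounds were tested at eleven concentrations, and IC50 values came from non-linear regression.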

CK1δ = CK1δ (Homo sapiens (Human), UniProt P48730); assay: CK1δ kinase assay (Caliper LABCHIP electrophoretic separation of fluoresceinated peptide substrate and product); type: biochemical; conditions: 200 pM enzyme, 50 μM ATP, 22 hours at room temperature
How it was run: as §1

Sequence of CK1δ (P48730 whole entry): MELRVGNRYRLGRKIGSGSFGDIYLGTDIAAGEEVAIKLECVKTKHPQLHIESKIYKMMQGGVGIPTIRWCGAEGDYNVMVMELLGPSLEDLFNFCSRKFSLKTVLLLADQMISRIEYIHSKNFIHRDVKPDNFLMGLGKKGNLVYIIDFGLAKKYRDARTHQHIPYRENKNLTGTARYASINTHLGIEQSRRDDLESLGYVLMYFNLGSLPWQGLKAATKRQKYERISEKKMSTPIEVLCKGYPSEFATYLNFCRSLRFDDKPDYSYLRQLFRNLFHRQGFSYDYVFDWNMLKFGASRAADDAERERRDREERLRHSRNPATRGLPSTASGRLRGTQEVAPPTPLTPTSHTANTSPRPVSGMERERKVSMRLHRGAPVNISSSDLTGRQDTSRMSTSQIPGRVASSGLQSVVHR
Sequence of CK1ε (P49674 whole entry): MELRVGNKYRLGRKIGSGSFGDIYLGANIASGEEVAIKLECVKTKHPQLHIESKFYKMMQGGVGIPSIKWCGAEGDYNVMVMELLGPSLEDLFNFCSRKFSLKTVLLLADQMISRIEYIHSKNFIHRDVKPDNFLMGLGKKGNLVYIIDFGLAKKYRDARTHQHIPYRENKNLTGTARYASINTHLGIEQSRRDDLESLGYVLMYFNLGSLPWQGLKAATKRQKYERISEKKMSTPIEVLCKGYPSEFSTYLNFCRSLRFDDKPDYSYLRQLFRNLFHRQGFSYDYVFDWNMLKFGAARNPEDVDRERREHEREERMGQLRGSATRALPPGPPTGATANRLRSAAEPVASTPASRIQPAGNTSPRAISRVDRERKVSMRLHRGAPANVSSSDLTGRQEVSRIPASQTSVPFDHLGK

Row | Compound | IC50 (CK1ε) [nM] | IC50 (CK1δ) [nM]
1 | O=C(Nc1cn2nc(-c3c(-c4ccc(F)cc4)nc4n3CCCC4)ccc2n1)c1ccnc(F)c1 [Compound 441, 2-Fluoro-N-(6-(2-(4-fluorophenyl)-5,6,7,8-tetrahydroimidazo[1,2-a]pyridin-3-yl)imidazo[1,2-b]pyridazin-2-yl)isonicotinamide] | 5.4 | 0.8
2 | O=C(Nc1cn2nc(-c3c(-c4ccc(F)cc4)nc4n3CCCC4)ccc2n1)c1cccc(-c2cccnc2)c1 [Compound 442, N-(6-(2-(4-Fluorophenyl)-5,6,7,8-tetrahydroimidazo[1,2-a]pyridin-3-yl)imidazo[1,2-b]pyridazin-2-yl)-3-(pyridin-3-yl)benzamide] | 2.5 | 0.4
3 | O=C(Nc1cn2nc(-c3c(-c4ccc(F)cc4)nc4n3CCCC4)ccc2n1)c1ccnc(N2CCOCC2)c1 [Compound 443, N-(6-(2-(4-Fluorophenyl)-5,6,7,8-tetrahydroimidazo[1,2-a]pyridin-3-yl)imidazo[1,2-b]pyridazin-2-yl)-2-morpholinoisonicotinamide] | 2.7 | 0.4
4 | O=C(Nc1cn2nc(-c3c(-c4ccc(F)cc4)nc4n3CCCC4)ccc2n1)c1ccncc1 [Compound 444, N-(6-(2-(4-Fluorophenyl)-5,6,7,8-tetrahydroimidazo[1,2-a]pyridin-3-yl)imidazo[1,2-b]pyridazin-2-yl)isonicotinamide] | 2.4 | 0.2
5 | O=C(Nc1cn2nc(-c3c(-c4ccc(F)cc4)nc4n3CCCC4)ccc2n1)c1cc(F)nc(F)c1 [Compound 445, 2,6-Difluoro-N-(6-(2-(4-fluorophenyl)-5,6,7,8-tetrahydroimidazo[1,2-a]pyridin-3-yl)imidazo[1,2-b]pyridazin-2-yl)isonicotinamide] | 4.7 | 0.4
6 | O=C(Nc1cn2nc(-c3c(-c4ccc(F)cc4)nc4n3CCOC4)ccc2n1)c1ccnc(F)c1 [Compound 447, 2-Fluoro-N-(6-(2-(4-fluorophenyl)-6,8-dihydro-5H-imidazo[2,1-c][1,4]oxazin-3-yl)imidazo[1,2-b]pyridazin-2-yl)isonicotinamide] | 5.8 | 0.4
7 | O=C(Nc1cn2nc(-c3c(-c4ccc(F)cc4)nc4n3CCOC4)ccc2n1)c1ccncc1 [Compound 448, N-(6-(2-(4-Fluorophenyl)-6,8-dihydro-5H-imidazo[2,1-c][1,4]oxazin-3-yl)imidazo[1,2-b]pyridazin-2-yl)isonicotinamide] | 3.6 | 0.4
8 | O=C(Nc1cn2nc(-c3c(-c4ccc(F)cc4)nc4n3CCOC4)ccc2n1)c1cc(F)nc(F)c1 [Compound 449, 2,6-Difluoro-N-(6-(2-(4-fluorophenyl)-6,8-dihydro-5H-imidazo[2,1-c][1,4]oxazin-3-yl)imidazo[1,2-b]pyridazin-2-yl)isonicotinamide] | 9 | 0.7
9 | O=C(Nc1cn2nc(-c3c(-c4ccc(F)cc4)nc4n3CCOC4)ccc2n1)c1ccnc(N2CCOCC2)c1 [Compound 450, N-(6-(2-(4-Fluorophenyl)-6,8-dihydro-5H-imidazo[2,1-c][1,4]oxazin-3-yl)imidazo[1,2-b]pyridazin-2-yl)-2-morpholinoisonicotinamide] | 6.9 | 0.7
10 | O=C(Nc1cn2nc(-c3c(-c4ccc(F)cc4)nc4n3CCOC4)ccc2n1)c1cccc(-c2cccnc2)c1 [Compound 451, N-(6-(2-(4-Fluorophenyl)-6,8-dihydro-5H-imidazo[2,1-c][1,4]oxazin-3-yl)imidazo[1,2-b]pyridazin-2-yl)-3-(pyridin-3-yl)benzamide] | 4.6 | 0.4
11 | O=C(Nc1cn2nc(-c3c(-c4ccc(F)cc4)nc4ccc(N5CCOCC5)cn34)ccc2n1)c1ccnc(F)c1 [Compound 452, 2-Fluoro-N-(6-(2-(4-fluorophenyl)-6-morpholinoimidazo[1,2-a]pyridin-3-yl)imidazo[1,2-b]pyridazin-2-yl)isonicotinamide] | 1.5 | 0.3
12 | O=C(Nc1cn2nc(-c3c(-c4ccc(F)cc4)nc4n3CCNC4)ccc2n1)c1ccncc1 [Compound 456, N-(6-(2-(4-Fluorophenyl)-5,6,7,8-tetrahydroimidazo[1,2-a]pyrazin-3-yl)imidazo[1,2-b]pyridazin-2-yl)isonicotinamide] | 7 | 0.9

The next lines start with the values.

Row | IC50 (CK1ε) [nM] | IC50 (CK1δ) [nM] | Compound
13 | 8.5 | 0.5 | O=C(Nc1cn2nc(-c3c(-c4ccc(F)cc4)nc4n3CCNC4)ccc2n1)c1cc(F)nc(F)c1 [Compound 457, 2,6-Difluoro-N-(6-(2-(4-fluorophenyl)-5,6,7,8-tetrahydroimidazo[1,2-a]pyrazin-3-yl)imidazo[1,2-b]pyridazin-2-yl)isonicotinamide]
14 | 3.7 | 0.3 | O=C(Nc1cn2nc(-c3c(-c4ccc(F)cc4)nc4n3CCNC4)ccc2n1)c1ccnc(N2CCOCC2)c1 [Compound 458, N-(6-(2-(4-Fluorophenyl)-5,6,7,8-tetrahydroimidazo[1,2-a]pyrazin-3-yl)imidazo[1,2-b]pyridazin-2-yl)-2-morpholinoisonicotinamide]
15 | 2.6 | 0.3 | O=C(Nc1cn2nc(-c3c(-c4ccc(F)cc4)nc4n3CCNC4)ccc2n1)c1cccc(-c2cccnc2)c1 [Compound 459, N-(6-(2-(4-Fluorophenyl)-5,6,7,8-tetrahydroimidazo[1,2-a]pyrazin-3-yl)imidazo[1,2-b]pyridazin-2-yl)-3-(pyridin-3-yl)benzamide]
16 | 3.7 | 0.6 | CC(=O)N1CCn2c(nc(-c3ccc(F)cc3)c2-c2ccc3nc(NC(=O)c4ccnc(F)c4)cn3n2)C1 [Compound 460, N-(6-(7-Acetyl-2-(4-fluorophenyl)-5,6,7,8-tetrahydroimidazo[1,2-a]pyrazin-3-yl)imidazo[1,2-b]pyridazin-2-yl)-2-fluoroisonicotinamide]
17 | 2.6 | 0.6 | O=C(Nc1cn2nc(-c3c(-c4ccc(F)cc4)nc4n3CCN(C(=O)CC(F)(F)F)C4)ccc2n1)c1ccnc(F)c1 [Compound 461, 2-Fluoro-N-(6-(2-(4-fluorophenyl)-7-(3,3,3-trifluoropropanoyl)-5,6,7,8-tetrahydroimidazo[1,2-a]pyrazin-3-yl)imidazo[1,2-b]pyridazin-2-yl)isonicotinamide]
18 | 6.5 | 1.2 | O=C(Nc1cn2nc(-c3c(-c4ccc(F)cc4)nc4n3CCN(C(=O)CCC(F)(F)F)C4)ccc2n1)c1ccnc(F)c1 [Compound 462, 2-Fluoro-N-(6-(2-(4-fluorophenyl)-7-(4,4,4-trifluorobutanoyl)-5,6,7,8-tetrahydroimidazo[1,2-a]pyrazin-3-yl)imidazo[1,2-b]pyridazin-2-yl)isonicotinamide]
19 | 3.8 | 0.5 | CC(C)C(=O)N1CCn2c(nc(-c3ccc(F)cc3)c2-c2ccc3nc(NC(=O)c4ccnc(F)c4)cn3n2)C1 [Compound 463, 2-Fluoro-N-(6-(2-(4-fluorophenyl)-7-isobutyryl-5,6,7,8-tetrahydroimidazo[1,2-a]pyrazin-3-yl)imidazo[1,2-b]pyridazin-2-yl)isonicotinamide]
20 | 2.3 | 0.1 | CC(C)(C)C(=O)N1CCn2c(nc(-c3ccc(F)cc3)c2-c2ccc3nc(NC(=O)c4ccnc(F)c4)cn3n2)C1 [Compound 464, 2-Fluoro-N-(6-(2-(4-fluorophenyl)-7-pivaloyl-5,6,7,8-tetrahydroimidazo[1,2-a]pyrazin-3-yl)imidazo[1,2-b]pyridazin-2-yl)isonicotinamide]
21 | 5 | 0.6 | CC(C)(C(=O)N1CCn2c(nc(-c3ccc(F)cc3)c2-c2ccc3nc(NC(=O)c4ccnc(F)c4)cn3n2)C1)C(F)(F)F [Compound 465, 2-Fluoro-N-(6-(2-(4-fluorophenyl)-7-(3,3,3-trifluoro-2,2-dimethylpropanoyl)-5,6,7,8-tetrahydroimidazo[1,2-a]pyrazin-3-yl)imidazo[1,2-b]pyridazin-2-yl)isonicotinamide]
22 | 1.5 | 0.2 | O=C(Nc1cn2nc(-c3c(-c4ccc(F)cc4)nc4n3CCN(C(=O)C3CC3(F)F)C4)ccc2n1)c1ccnc(F)c1 (stereo not shown) [Compound 466, N-(6-(7-(2,2-Difluorocyclopropanecarbonyl)-2-(4-fluorophenyl)-5,6,7,8-tetrahydroimidazo[1,2-a]pyrazin-3-yl)imidazo[1,2-b]pyridazin-2-yl)-2-fluoroisonicotinamide]
23 | 6.1 | 0.8 | O=C(Nc1cn2nc(-c3c(-c4ccc(F)cc4)nc4n3CCN(C(=O)C3(C(F)(F)F)CCC3)C4)ccc2n1)c1ccnc(F)c1 [Compound 467, 2-Fluoro-N-(6-(2-(4-fluorophenyl)-7-(1-(trifluoromethyl)cyclobutanecarbonyl)-5,6,7,8-tetrahydroimidazo[1,2-a]pyrazin-3-yl)imidazo[1,2-b]pyridazin-2-yl)isonicotinamide]
24 | 3.9 | 0.5 | CC1(C(=O)N2CCn3c(nc(-c4ccc(F)cc4)c3-c3ccc4nc(NC(=O)c5ccnc(F)c5)cn4n3)C2)COC1 [Compound 468, 2-Fluoro-N-(6-(2-(4-fluorophenyl)-7-(3-methyloxetane-3-carbonyl)-5,6,7,8-tetrahydroimidazo[1,2-a]pyrazin-3-yl)imidazo[1,2-b]pyridazin-2-yl)isonicotinamide]
25 | 12.9 | 2.3 | O=C(Nc1cn2nc(-c3c(-c4ccc(F)cc4)nc4n3CCN(C(=O)C3CC3)C4)ccc2n1)c1ccnc(F)c1 [Compound 469, N-(6-(7-(Cyclopropanecarbonyl)-2-(4-fluorophenyl)-5,6,7,8-tetrahydroimidazo[1,2-a]pyrazin-3-yl)imidazo[1,2-b]pyridazin-2-yl)-2-fluoroisonicotinamide]
26 | 8.1 | 1.1 | CC(C)(O)C(=O)N1CCn2c(nc(-c3ccc(F)cc3)c2-c2ccc3nc(NC(=O)c4ccnc(F)c4)cn3n2)C1 [Compound 470, 2-Fluoro-N-(6-(2-(4-fluorophenyl)-7-(2-hydroxy-2-methylpropanoyl)-5,6,7,8-tetrahydroimidazo[1,2-a]pyrazin-3-yl)imidazo[1,2-b]pyridazin-2-yl)isonicotinamide]
